From patent US20060149043A1, “Fluorescent lanthadine complex” (Japan Science and Technology Agency, priority 2003, published 2006)

How the values were obtained:
[1] = Time resolved luminescence measurement of europium (III) complexes (luminescence, lifetime, water coordination number); assay type: physicochemical; conditions: europium (III) complex
Method: Compounds 8, 11 and 15 each were dissolved in dimethylsulfoxide to prepare 10 mM stock solutions. In addition, europium (III) chloride hexahydrate was dissolved in dimethylsulfoxide to prepare a 10 mM stock solution. Equal volumes of the europium (III) chloride hexahydrate solution were added to the individually prepared solutions of Compounds 8, 11 and 15, and the resulting solutions were left standing for 30 minutes at room temperature to prepare the europium (III) complexes of the Compounds 8, 11 and 15. These solutions were diluted using 100 mM HEPES buffer solution (pH 7.4), and the luminescences of the 8 μM solutions were measured.
(§1) Luminescences were measured using a time resolved measurement. Luminescences were measured for all complexes at an excitation wavelength of 330 nm, a delay time of 0.05 ms and a gate time of 1.00 ms. In addition, the luminescence lifetimes were measured using an excitation wavelength of […], and the luminescence wavelengths were measured using 545 nm for individual terbium complexes and 615 nm for individual europium complexes [100 mM HEPES buffer (pH 7.4) in each 8 μM].
In addition, the luminescence spectra of the europium (III) complexes of Compounds 8, 11 and 15 are shown in FIG. 12, and their luminescence life and water coordination numbers are shown in Table 2.

[2] = Time resolved luminescence measurement of terbium (III) complexes (luminescence, lifetime, water coordination number); assay type: physicochemical; conditions: terbium (III) complex
Method: Compounds 8, 11 and 15 each were dissolved in dimethyl sulfoxide to prepare 10 mM stock solutions. In addition, terbium (III) chloride hexahydrate was dissolved in dimethyl sulfoxide to prepare a 10 mM stock solution. Equal volumes of the terbium (III) chloride hexahydrate solution prepared were added to the individually prepared solutions of Compounds 8, 11 and 15, and, the resulting solutions were left standing for 30 minutes at room temperature to prepare terbium (III) complexes of Compounds 8, 11 and 15. The solutions were diluted using a 100 mM HEPES buffer (pH 7.4), and the luminescences of 8 μM solutions were measured.
as §1
The luminescence spectra of the terbium (III) complexes of Compounds 8, 11 and 15 are shown in FIG. 11, and their luminescence life and water coordination numbers are shown in Table 1.

[3] = 8 μM, 100 mM HEPES buffer (pH 7.4), excitation 330 nm, delay time 0.05 ms, gate time 1.00 ms

For `Cc1cc(=O)[nH]c2cc(NC(=O)CN(CCN(CCN(CC(=O)O)CC(=O)O)CC(=O)O)CC(=O)O)ccc12` [DTPA-cs124], the Water coordination number [1] was 1.34, the “Life time (H2O)” value ([1]; 8 μM in 100 mM HEPES buffer (pH 7.4), luminescence wavelength 615 nm, H2O) was 0.59 ms and the “Luminescence emission (intensity)” value [1, 3] was “almost identical”. For the same compound, the “Life time (D2O)” value ([1]; luminescence wavelength 615 nm, D2O) was 2.38 ms, the Water coordination number [2] was 1.23 and the “Life time (H2O)” value ([2]; 8 μM in 100 mM HEPES buffer (pH 7.4), luminescence wavelength 545 nm, H2O) was 1.46 ms. For the same compound, the “Luminescence emission (intensity)” value [2, 3] was “almost identical” and the “Life time (D2O)” value ([2]; luminescence wavelength 545 nm, D2O) was 2.55 ms.
